These are literature values, as cited in PMC3719006, “Safety, tolerability, pharmacokinetics, and pharmacodynamics of a long-acting release (LAR) formulation of pasireotide (SOM230) in patients with gastroenteropancreatic neuroendocrine tumors: results from a randomized, multicenter, open-label, phase I study” (Cancer Chemotherapy and Pharmacology, 2013).

The test system of data set [1] is somatostatin receptor subtypes (sst1–3,5). On the set-up: method as in PMID 17977644. The note with it: four of the five somatostatin receptor subtypes.
For data set [2] the following is noted: SC formulation.
The conditions of data set [3]: native somatostatin. How it is done: Somatostatin inhibits hormone release and cell growth through binding to specific, cell surface, G-protein–coupled receptors, of which five distinct subtypes (sst1–5) have been characterized. In pancreatic and gastrointestinal endocrine tumors, sst2 expression predominates, although multiple other subtypes have also been found. The limited clinical use of native somatostatin, because of its very short half-life (<3 min) and the impact of rebound hypersecretion, has necessitated the development of more clinically useful analogs. Development of the somatostatin an ...

The test system of the next data set is sst5 receptor. From the text: (§1) Somatostatin inhibits hormone release and cell growth through binding to specific, cell surface, G-protein–coupled receptors, of which five distinct subtypes (sst1–5) have been characterized. In pancreatic and gastrointestinal endocrine tumors, sst2 expression predominates, although multiple other subtypes have also been found. […] Development of the somatostatin an ...

A further data set relates to sst2 receptor.
From the text: as §1

Regarding pasireotide, the binding affinity entry in data set [1] is “binds with high affinity”. In addition, in data set [2], the “PK exposure difference between patients with GEP NET and healthy volunteers” value is reported as “twofold”.

By half-life is commonly meant how long it takes for the measured level to halve. Consider “somatostatin: native hormone that inhibits hormone release and cell growth via sst1–5”, for which, in data set [3], the half-life is less than 3 min. On to octreotide, for which the binding affinity entry is “lower binding affinity” in the data set with sst5 receptor and “binds with high affinity” with sst2 receptor.
